Test results from ChEMBL document CHEMBL1201862, “PubChem BioAssay data set” (2004).
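Assay format: 96-well plates, 48-hour exposure. At the GI50, growth is halved.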 Active and inactive are the calls of the source. No stated cut-off is given here; in the data, active = GI50 up to about 1.1 µM and inactive = higher.

Experiments:
Test in all cases: NCI tumour cell line growth inhibition, 48 h
M19-MEL = tested on: M19-MEL
ACHN = tested on: ACHN
UACC-62 = tested on: UACC-62
M14 = tested on: M14
NCI-H522 = tested on: NCI-H522
NCI-H23 = tested on: NCI-H23
KM12 = tested on: KM12
DMS-273 = tested on: DMS-273
EKVX = tested on: EKVX
HOP-62 = tested on: HOP-62
SNB-78 = tested on: SNB-78
HT-29 = tested on: HT-29
RXF 393 = tested on: RXF 393
KM-20L2 = tested on: KM-20L2
MOLT-4 = tested on: MOLT-4
OVCAR-5 = tested on: OVCAR-5
TK-10 = tested on: TK-10
SK-OV-3 = tested on: SK-OV-3
SR = tested on: SR
CCRF-CEM = tested on: CCRF-CEM
NCI-H226 = tested on: NCI-H226
NCI-H460 = tested on: NCI-H460
HOP-92 = tested on: HOP-92
A549 = tested on: A549
RXF 631 = tested on: RXF 631
SF-295 = tested on: SF-295
OVCAR-8 = tested on: OVCAR-8
IGROV-1 = tested on: IGROV-1
U-251 = tested on: U-251
A498 = tested on: A498
HCT-116 = tested on: HCT-116
SK-MEL-28 = tested on: SK-MEL-28
DMS-114 = tested on: DMS-114
HL-60 = tested on: HL-60
UACC-257 = tested on: UACC-257
HCT-15 = tested on: HCT-15
HCC 2998 = tested on: HCC 2998
XF498 = tested on: XF498
LOX IMVI = tested on: LOX IMVI
K562 = tested on: K562
SF-539 = tested on: SF-539
HOP-18 = tested on: HOP-18
SK-MEL-5 = tested on: SK-MEL-5
OVCAR-3 = tested on: OVCAR-3
SW-620 = tested on: SW-620
DLD-1 = tested on: DLD-1
RPMI-8226 = tested on: RPMI-8226
UO-31 = tested on: UO-31
LXFL 529 = tested on: LXFL 529
SNB-19 = tested on: SNB-19
786-0 = tested on: 786-0
SN12C = tested on: SN12C
Malme-3M = tested on: Malme-3M
COLO 205 = tested on: COLO 205
CAKI-1 = tested on: CAKI-1
OVCAR-4 = tested on: OVCAR-4
SNB-75 = tested on: SNB-75
SF-268 = tested on: SF-268
SK-MEL-2 = tested on: SK-MEL-2

## NCC(=O)NC(CCCC(NC(=O)CN)P(=O)(O)O)P(=O)(O)O (stereo not given)
M19-MEL
  GI50: > 100 µM (inactive)
ACHN
  GI50: > 100 µM (inactive)
UACC-62
  GI50: > 100 µM (inactive)
M14
  GI50: > 100 µM (inactive)
NCI-H522
  GI50: > 100 µM (inactive)
NCI-H23
  GI50: > 100 µM (inactive)
KM12
  GI50: > 100 µM (inactive)
DMS-273
  GI50: > 100 µM (inactive)
EKVX
  GI50: > 100 µM (inactive)
HOP-62
  GI50: > 100 µM (inactive)
SNB-78
  GI50: > 100 µM (inactive)
HT-29
  GI50: > 100 µM (inactive)
RXF 393
  GI50: > 100 µM (inactive)
KM-20L2
  GI50: > 100 µM (inactive)
MOLT-4
  GI50: > 100 µM (inactive)
OVCAR-5
  GI50: > 100 µM (inactive)
TK-10
  GI50: > 100 µM (inactive)
SK-OV-3
  GI50: > 100 µM (inactive)
SR
  GI50: > 100 µM (inactive)
CCRF-CEM
  GI50: > 100 µM (inactive)
NCI-H226
  GI50: 26 µM (inactive)
NCI-H460
  GI50: > 100 µM (inactive)
HOP-92
  GI50: > 100 µM (inactive)
A549
  GI50: > 100 µM (inactive)
RXF 631
  GI50: > 100 µM (inactive)
SF-295
  GI50: > 100 µM (inactive)
OVCAR-8
  GI50: > 100 µM (inactive)
IGROV-1
  GI50: > 100 µM (inactive)
U-251
  GI50: > 100 µM (inactive)
A498
  GI50: > 100 µM (inactive)
HCT-116
  GI50: > 100 µM (inactive)
SK-MEL-28
  GI50: > 100 µM (inactive)
DMS-114
  GI50: > 100 µM (inactive)
HL-60
  GI50: > 100 µM (inactive)
UACC-257
  GI50: > 100 µM (inactive)

## Clc1ccc(C2=Nc3ccccc3SC(c3cccs3)C2)cc1 (stereo not given)
HCT-15
  GI50: 14 µM
M19-MEL
  GI50: 15.2 µM (inactive)
ACHN
  GI50: 15.3 µM (inactive)
UACC-62
  GI50: 15.3 µM (inactive)
M14
  GI50: 16.4 µM (inactive)
NCI-H522
  GI50: 18.1 µM (inactive)
HCC 2998
  GI50: 17 µM (inactive)
XF498
  GI50: 16.1 µM (inactive)
LOX IMVI
  GI50: 7.19 µM (inactive)
K562
  GI50: 5.16 µM (inactive)
NCI-H23
  GI50: 14.1 µM (inactive)
SF-539
  GI50: 16.8 µM (inactive)
KM12
  GI50: 10.7 µM (inactive)
DMS-273
  GI50: 14 µM (inactive)
EKVX
  GI50: 17.5 µM (inactive)
HOP-18
  GI50: 18.6 µM (inactive)
HOP-62
  GI50: 18.2 µM (inactive)
SNB-78
  GI50: 28.9 µM (inactive)
SK-MEL-5
  GI50: 16.5 µM (inactive)
OVCAR-3
  GI50: 11.5 µM (inactive)
HT-29
  GI50: 14.3 µM (inactive)
RXF 393
  GI50: 10.7 µM (inactive)
KM-20L2
  GI50: 16.6 µM (inactive)
SW-620
  GI50: 13.1 µM (inactive)
DLD-1
  GI50: 10.1 µM (inactive)
RPMI-8226
  GI50: 2.42 µM (inactive)
UO-31
  GI50: 13.6 µM (inactive)
LXFL 529
  GI50: 17.5 µM (inactive)
MOLT-4
  GI50: 20.9 µM (inactive)
OVCAR-5
  GI50: 14.5 µM (inactive)
TK-10
  GI50: 17.3 µM (inactive)
SK-OV-3
  GI50: 16.8 µM (inactive)
SR
  GI50: 2.43 µM (inactive)
NCI-H460
  GI50: 15 µM (inactive)
A549
  GI50: 17.2 µM (inactive)
SNB-19
  GI50: 16.4 µM (inactive)
SF-295
  GI50: 15 µM (inactive)
OVCAR-8
  GI50: 16.2 µM (inactive)
IGROV-1
  GI50: 14 µM (inactive)
786-0
  GI50: 16.3 µM (inactive)
U-251
  GI50: 11.8 µM (inactive)
SN12C
  GI50: 15.6 µM (inactive)
Malme-3M
  GI50: > 10 µM (inactive)
A498
  GI50: 14.9 µM (inactive)
HCT-116
  GI50: 7.67 µM (inactive)
SK-MEL-28
  GI50: 17.6 µM (inactive)
COLO 205
  GI50: 17.4 µM (inactive)
CAKI-1
  GI50: 15.5 µM (inactive)
DMS-114
  GI50: 15.2 µM (inactive)
UACC-257
  GI50: 15.7 µM (inactive)
OVCAR-4
  GI50: 14 µM (inactive)
SNB-75
  GI50: 16.9 µM (inactive)
SF-268
  GI50: 16.3 µM (inactive)

## COC(=O)Cc1nn2c(nc1=O)sc1ccc3ccccc3c12
HCT-15
  GI50: > 100 µM
M19-MEL
  GI50: > 100 µM (inactive)
ACHN
  GI50: 56.9 µM (inactive)
M14
  GI50: > 100 µM (inactive)
NCI-H522
  GI50: 37.2 µM (inactive)
HCC 2998
  GI50: > 100 µM (inactive)
LOX IMVI
  GI50: 67.3 µM (inactive)
K562
  GI50: > 100 µM (inactive)
NCI-H23
  GI50: > 100 µM (inactive)
SF-539
  GI50: > 100 µM (inactive)
KM12
  GI50: > 100 µM (inactive)
EKVX
  GI50: > 100 µM (inactive)
HOP-18
  GI50: > 100 µM (inactive)
HOP-62
  GI50: 72.1 µM (inactive)
SK-MEL-5
  GI50: > 100 µM (inactive)
OVCAR-3
  GI50: > 100 µM (inactive)
HT-29
  GI50: > 100 µM (inactive)
RXF 393
  GI50: 50.7 µM (inactive)
KM-20L2
  GI50: > 100 µM (inactive)
SW-620
  GI50: > 100 µM (inactive)
DLD-1
  GI50: > 100 µM (inactive)
UO-31
  GI50: > 100 µM (inactive)
LXFL 529
  GI50: > 100 µM (inactive)
MOLT-4
  GI50: > 100 µM (inactive)
OVCAR-5
  GI50: > 100 µM (inactive)
SK-OV-3
  GI50: > 100 µM (inactive)
SR
  GI50: > 100 µM (inactive)
CCRF-CEM
  GI50: > 100 µM (inactive)
NCI-H226
  GI50: > 100 µM (inactive)
NCI-H460
  GI50: 62.7 µM (inactive)
HOP-92
  GI50: 63.8 µM (inactive)
A549
  GI50: > 100 µM (inactive)
RXF 631
  GI50: 91.6 µM (inactive)
SNB-19
  GI50: > 100 µM (inactive)
OVCAR-8
  GI50: 43.2 µM (inactive)
IGROV-1
  GI50: > 100 µM (inactive)
786-0
  GI50: 44.3 µM (inactive)
U-251
  GI50: 25.1 µM (inactive)
SN12C
  GI50: > 100 µM (inactive)
Malme-3M
  GI50: > 100 µM (inactive)
A498
  GI50: > 100 µM (inactive)
HCT-116
  GI50: > 100 µM (inactive)
SK-MEL-28
  GI50: > 100 µM (inactive)
COLO 205
  GI50: > 100 µM (inactive)
CAKI-1
  GI50: 50.2 µM (inactive)
SK-MEL-2
  GI50: 93.8 µM (inactive)
HL-60
  GI50: > 100 µM (inactive)
UACC-257
  GI50: > 100 µM (inactive)
OVCAR-4
  GI50: > 100 µM (inactive)
SNB-75
  GI50: 37.3 µM (inactive)

## CC1=C[C@H]2c3c([nH]c4ccccc34)C(c3c[nH]c4ccccc34)[C@H]2CC1 (stereo not given in full)
HCT-15
  GI50: 5.41 µM
M19-MEL
  GI50: 10.3 µM (inactive)
ACHN
  GI50: 10.2 µM (inactive)
UACC-62
  GI50: 10.6 µM (inactive)
M14
  GI50: 6.52 µM (inactive)
NCI-H522
  GI50: 5.87 µM (inactive)
HCC 2998
  GI50: 3.48 µM (inactive)
LOX IMVI
  GI50: 2.19 µM (inactive)
K562
  GI50: 3.75 µM (inactive)
NCI-H23
  GI50: 3.33 µM (inactive)
SF-539
  GI50: 12.9 µM (inactive)
DMS-273
  GI50: 4.33 µM (inactive)
EKVX
  GI50: 12.4 µM (inactive)
HOP-18
  GI50: 11.7 µM (inactive)
SNB-78
  GI50: 3.53 µM (inactive)
SK-MEL-5
  GI50: 11.9 µM (inactive)
HT-29
  GI50: 3.3 µM (inactive)
RXF 393
  GI50: 1.74 µM (inactive)
SW-620
  GI50: 6.37 µM (inactive)
DLD-1
  GI50: 6.43 µM (inactive)
RPMI-8226
  GI50: 3.24 µM (inactive)
UO-31
  GI50: > 10 µM (inactive)
LXFL 529
  GI50: 4.29 µM (inactive)
MOLT-4
  GI50: 2.15 µM (inactive)
TK-10
  GI50: 14.5 µM (inactive)
SK-OV-3
  GI50: 13.7 µM (inactive)
CCRF-CEM
  GI50: 3.36 µM (inactive)
NCI-H226
  GI50: 11 µM (inactive)
NCI-H460
  GI50: 2.84 µM (inactive)
HOP-92
  GI50: 0.536 µM (active)
A549
  GI50: 10.1 µM (inactive)
RXF 631
  GI50: 3.57 µM (inactive)
OVCAR-8
  GI50: 8.59 µM (inactive)
IGROV-1
  GI50: 7.96 µM (inactive)
786-0
  GI50: 3.88 µM (inactive)
U-251
  GI50: 4.55 µM (inactive)
SN12C
  GI50: 3.75 µM (inactive)
Malme-3M
  GI50: 18.5 µM (inactive)
A498
  GI50: 15.5 µM (inactive)
HCT-116
  GI50: 3.27 µM (inactive)
SK-MEL-28
  GI50: 12.1 µM (inactive)
COLO 205
  GI50: 3.41 µM (inactive)
CAKI-1
  GI50: 12.9 µM (inactive)
DMS-114
  GI50: 5.74 µM (inactive)
HL-60
  GI50: 4.94 µM (inactive)
UACC-257
  GI50: 13.4 µM (inactive)
SNB-75
  GI50: 6.44 µM (inactive)
